PMC6753678, “Fueling Open Innovation for Malaria Transmission-Blocking Drugs: Hundreds of Molecules Targeting Early Parasite Mosquito Stages” (Frontiers in Microbiology, 2019)
Read-outs that look alike come from different tables or passages of the source.

Assays:
[1] = tested on: 3D7-strain P. falciparum asexual parasites; test: P. falciparum asexual growth inhibition assay (Pf GIA); assay type: cell-based, Plasmodium falciparum; settings: dose response confirmation; read-out: Pf asexual growth inhibition assays IC50
Method in brief: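 Parasites at 0.25% parasitemia, 2% hematocrit in Albumax-supplemented RPMI were exposed to compounds in dose response for 72 h at 37°C under 5% CO2/5% O2. Viability was read as LDH activity (NBT/diaphorase, A650 after freeze-thaw). Percent inhibition was calculated against chloroquine and DMSO controls, mean of three biological replicates.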

HepG2 cells = test: HepG2 cytotoxicity assay; settings: for Pb ODA (this manuscript) HepG2 cytoxicity: HepG2 cytotoxicity listed with the Pb ODA data set (this manuscript); for IC50: read-out: HepG2 cytotoxicity assay IC50, dose response confirmation
Method in brief: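 Cells at 2,500 per well in MEM with 10% fetal bovine serum and 1% NEAA were exposed to test compounds for 48 h at 37°C, 5% CO2. Viability was read by fluorescence, with percent inhibition calculated against 50 μM doxorubicin (positive) and DMSO (negative) controls.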

[2] = tested on: P. berghei ookinete development; settings: for % inhibition, Replicate A / % inhibition, Replicate B: primary screen at 1 μM
[3] = read-out: Pb ODA (this manuscript) IC50, P. berghei ookinete development assay, this manuscript
[4] = read-out: Pb Ookinete development assay IC50, dose response confirmation
[5] = unified HepG2 value across the three screens
[6] = read-out: Pb ODA IC50, this manuscript
[7] = HepG2 values of the three screens unified

| Structure (SMILES) | IC50 [1] [nM] | Pb ODA (this manuscript) HepG2 cytoxicity (HepG2 cells) [µM] | IC50 (HepG2 cells) [nM] | Is compound selective in assay? Pb ODA active? [2] | % inhibition, Replicate A [2] [%] | % inhibition, Replicate B [2] [%] | IC50 [2, 3] [nM] | IC50 [2, 4] [nM] | Unified cytotox (HepG2 cells; [5]) [µM] | Is compound selective in assay? Pb ODA active? ([2]; 1: YES, 0: NO) | IC50 [2, 6] [nM] | HepG2 cytoxicity (Pb ODA, this manuscript) (HepG2 cells; HepG2, this manuscript) [µM] | Unified cytotox (HepG2 cells; [7]) [µM] |
| --- | --- | --- | --- | --- | --- | --- | --- | --- | --- | --- | --- | --- | --- |
| COc1cccc(C=Cc2nc(=O)c3ccccc3o2)c1OC [TCMDC-124577] | 146 | 100.00 | 100000 | 1 (key: 1: YES; 0: NO) | 107.06 | 83.20 | 50 | 49 | – | – | – | – | – |
| CC(=O)Oc1c(Cl)c(C)nc(C)c1-c1ccc(Oc2ccc(OC(F)(F)F)cc2)cc1 [TCMDC-137385] | 75 | 31.99 | 32000 | 1 (key: 1: YES; 0: NO) | 89.00 | 125.42 | 1020 | 1020 | – | – | – | – | – |
| CCCCN(C)CC#Cc1ccc(-c2ccc3[nH]c(C)c(Br)c(=O)c3c2)cn1 [TCMDC-136285] | 1060 | – | 100000 | – | 73.89 | 66.49 | – | 1020 | 100.00 | 1 (1: YES) | 1020 | – | – |
| CCOC(=O)c1c[nH]c2c(ccc3ccccc32)c1=O [TCMDC-123857] | 443 | – | 100000 | – | 88.11 | 83.13 | – | 562 | 100.00 | 1 (1: YES) | 560 | – | – |
| COc1ccc2c(=O)c(Br)c(C)[nH]c2c1 [TCMDC-137426] | 842 | 100.00 | 100000 | 1 (key: 1: YES; 0: NO) | 81.77 | 82.46 | 480 | 483 | – | – | – | – | – |
| CCc1cc2c(Sc3nc4ccccc4[nH]3)ncnc2s1 [TCMDC-124553] | 1760 | – | 100000 | – | 56.26 | 84.90 | – | 998 | 100.00 | 1 (1: YES) | 1000 | – | – |
| CCCCCCCc1cc(=O)c2ccccc2[nH]1 [TCMDC-132026] | 458 | 20.65 | 20600 | 1 (key: 1: YES; 0: NO) | 86.88 | 74.93 | 1140 | 1140 | – | – | – | – | – |
| O=C(c1ccco1)N1CCN(c2ccc([N+](=O)[O-])c(NC3CC3)c2)CC1 [TCMDC-125397] | < 0.2 | – | 2040 | – | 106.00 | 90.44 | – | 1160 | 2.04 | 0 (0: NO) | 1160 | – | – |
| O=C(NC1CCN(CC2(c3ccccc3F)CCCC2)CC1)c1ccn[nH]1 [TCMDC-124837] | 456 | 41.69 | 41700 | 1 (key: 1: YES; 0: NO) | 77.91 | 70.40 | 1490 | 1490 | – | – | – | – | – |
| CCCCCCCCc1c(C)[nH]c(C)c(C#N)c1=O [TCMDC-137431] | 794 | – | 34700 | – | 93.99 | 59.83 | – | 460 | 34.67 | 1 (1: YES) | – | – | – |
| Cc1cc(=O)c(-c2ccc(Oc3cccc(OC(F)(F)F)c3)cc2)c(C)[nH]1 [TCMDC-137266] | 99 | 10.72 | 10700 | 1 (key: 1: YES; 0: NO) | 74.10 | 97.06 | 200 | 205 | – | – | – | – | – |
| CCOC(=O)C(=O)N1c2ccc(OCC)cc2-c2c(ssc2=S)C1(C)C [TCMDC-124090] | 89 | – | 100000 | – | 23.50 | 54.71 | – | 2010 | 100.00 | 1 (1: YES) | 2010 | – | – |
| CCC(C)(C)c1ccc2nc(N)nc(N)c2c1C [TCMDC-137829] | 1.07 | – | 1.7 | – | 40.64 | 76.04 | – | 3100 | 0.0017 | 0 (0: NO) | 3100 | – | – |
| COc1ccc2ncc(C#N)c(CCN3CCC(NCc4ccc5c(n4)NC(=O)CS5)CC3)c2n1.Cl [TCMDC-135188] | 2370 | – | 55000 | – | 67.48 | 73.91 | – | 768 | – | 1 (1: YES) | 770 | 54.95 | 54.95 |
| Cc1cc(C(=O)OCC(=O)Nc2c(C)n(C)n(-c3ccccc3)c2=O)c(C)n1-c1ccc(F)cc1 [TCMDC-123794] | 43 | – | 19500 | – | 88.45 | 92.59 | – | 210 | 19.50 | 1 (1: YES) | – | – | – |
| COc1nc2c(CCN3CCC(NCc4ccc5c(c4)NCCO5)CC3)c(Cl)cnc2cc1F.Cl [TCMDC-135768] | 584 | 14.45 | 14400 | 0 (key: 1: YES; 0: NO) | 14.93 | 54.54 | 3540 | 3540 | – | – | – | – | – |
| COc1cccc(CC(=O)N2CCC(n3c(C)nc4ccc(F)cc43)CC2)c1 [TCMDC-124792] | 208 | – | 100000 | – | 59.80 | 82.85 | – | 794 | 100.00 | 1 (1: YES) | 790 | – | – |
| Cc1[nH]c(C)c(-c2ccc(-c3ccc(C(F)F)cc3)nc2)c(=O)c1Cl [TCMDC-132329] | 1440 | – | 100000 | – | 72.54 | 35.56 | – | 7800 | – | 1 (1: YES) | 7800 | – | 100.00 |
| Cc1noc(C)c1-c1ccc2c(Nc3ccc(C(F)(F)F)cc3)c(C(N)=O)cnc2c1.Cl [TCMDC-136019] | 365 | 48.98 | 49000 | 0 (key: 1: YES; 0: NO) | 61.84 | 39.20 | 5460 | 5460 | – | – | – | – | – |
| O=C1C(c2ccccc2)=C(Nc2cccc(OC(F)(F)C(F)F)c2)c2ccccc21 [TCMDC-125498] | 68 | 100.00 | 100000 | 1 (key: 1: YES; 0: NO) | 29.02 | 52.36 | 1380 | 1380 | – | – | – | – | – |
